Data published in patent US10604696B2, “Process for acidizing” (Cleansorb Limited, priority 2014, dated 2020).

What was measured:
[1] = Calcium salt precipitation at 5° C. from spent acidizing solutions; format: physicochemical; settings: 2.7 g CaCO3 in 100 ml, 65 hours at approximately 25° C., then 20 hours at 5° C.
Protocol: 100 ml solutions were prepared in deionised water in 100 ml Duran bottles: 2.7 g of laboratory grade CaCO3 was added to each solution. Acidizing was allowed to proceed at room temperature (approximately 25° C.) for 65 hours. To simulate the effect of low temperature spent acidizing solutions were placed in a refrigerator at 5° C. and observed at 20 hours for the presence of any precipitate.

[2] = Calcium salt precipitation following acidising of calcium carbonate in fresh water; format: physicochemical
Description: The dissolving capacities of delta glucono lactone and […] (a formic acid precursor commercially available from Cleansorb Limited of Guildford, UK) and their capacity for precipitation of calcium salts is shown in Table 1.

O=C1O[C@H](CO)[C@@H](O)[C@H](O)[C@H]1O [Glucono delta lactone, D-(+)-Gluconic acid δ-lactone]
Yes: Calcium salt precipitated at 5° C. following acidising ([1]; 10% w/v glucono delta lactone, no additional component) | Calcium salt precipitated at 5° C. following acidising ([1]; 22% w/v glucono delta lactone, no additional component) | Calcium salt precipitated following acidising of calcium carbonate in fresh water ([2]; acid precursor used at 3% w/v) | Calcium salt precipitated following acidising of calcium carbonate in fresh water ([2]; acid precursor used at 5% w/v) | Calcium salt precipitated following acidising of calcium carbonate in fresh water ([2]; acid precursor used at 10% w/v)
No: Calcium salt precipitated at 5° C. following acidising ([1]; 10% w/v glucono delta lactone plus sodium acetate 5% w/v) | Calcium salt precipitated at 5° C. following acidising ([1]; 10% w/v glucono delta lactone plus sodium lactate 60% solution 10.8% w/v) | Calcium salt precipitated at 5° C. following acidising ([1]; 22% w/v glucono delta lactone plus sodium acetate 5% w/v) | Calcium salt precipitated at 5° C. following acidising ([1]; 22% w/v glucono delta lactone plus sodium lactate 60% solution 10.8% w/v) | Calcium salt precipitated following acidising of calcium carbonate in fresh water ([2]; acid precursor used at 1% w/v) | Calcium salt precipitated following acidising of calcium carbonate in fresh water ([2]; acid precursor used at 2% w/v)
